Earlier results in patent US20140018438A1, “METHOD OF DESTROYING BACTERIAL BIOFILM USING STERILE INTRAVENOUS OR INTRACAVERNOUS GLYCERIN” (priority 2012, published 2014).

Details: sterile product for intravenous administration, generally 3% concentration at 80-100 milliliters per hour

## OCC(O)CO [Glycerin]
  allergic reactions / safety profile: free of allergic reactions
